We go through one compound from patent publication US20120225889A1, “USE OF MACROCYCLIC LACTONE DERIVATIVES FOR THE TREATMENT OF INFLAMMATORY DISORDERS” (PIRAMAL LIFE SCIENCES LIMITED, priority 2010, published 2012).

Holding throughout (type): cell-based
Test [1] deals with IL-2. Description: Cytokine release assay in hPBMCs: IL-2. The conditions noted are these: Homo sapiens. As for the experimental part:
(§1) hPBMCs were obtained from healthy donors by centrifugation of heparinized venous blood over Ficoll/Hypaque solution (Histopaque-1077, Sigma, USA). Isolated hPBMCs were suspended in RPMI 1640 culture medium supplemented with 10% FBS and seeded at a density of 50,000 cells/well in a 96-well plate (Nunc, USA). The cells were incubated at 37° C., 5% CO2 for a period of 24 h. These cells were used for the lymphocyte proliferation as well as cytokine release assay.
(§2) The plated cells were treated with different concentrations of the test compound (prepared as mM stock in DMSO and diluted with DMSO to achieve the following final concentrations in the assay: 100, 10, 1, 0.1, 0.01, 0.001, 0.0001, 0.00001 and 0.000001 μM) and incubated for 30 min. The cells were then stimulated with PHA (prepared as 1 mg/mL stock in RPMI 1640 culture medium and used at a final concentration of 5 μg/mL). FK506 was used as a standard. The plates were incubated at 37° C., 5% CO2 for 48 h. The cytokines in the supernatant collected were detected using ELISA kit (BD biosciences, USA). The cytokines evaluated in the assay were TNF-α, IL-2, IL-6, and IFN-γ.

For test [2], the system named is IFN-γ. Description: Cytokine release assay in hPBMCs: IFN-γ. The conditions noted are these: Homo sapiens. As for the experimental part: as §1, §2
For test [3], the system named is IL-6. Description: hPBMC membrane-monocyte contact bioassay: IL-6. The conditions noted are these: Homo sapiens, monocytes, 24 h, read-out: inhibition of activated hPBMC mediated IL-6 production. The source says:
The assay was designed as in reference, Immunology Letters, 117, 114-118, (2008), the disclosure of which is incorporated by reference for the teaching of the assay. Activated T cell contact-mediated monocyte activation, leading to the production of proinflammatory cytokines (e.g., TNF-α, IL-6), contributes to the pathogenesis of chronic inflammatory diseases including rheumatoid arthritis.
6-well plates (Nunc, USA) were coated with Goat anti-Mouse IgG, Fc (Chemicon, USA) at a concentration of 16.5 μL/mL in coating buffer ([…] NaHCO3, 3.56 g Na2CO3, pH 9.5).
The plates were incubated overnight at 4° C. under sterile conditions. […]
Following incubation, hPBMCs in separate wells of the 6-well plate were harvested, pooled together, and centrifuged. […] The pellet of hPBMC membranes was resuspended in lysis buffer (Sigma, USA) and the protein concentration was determined by the method of Bradford (Sigma, USA).
100 μL monocytes per well at 5×10^5 cells/mL were added to the 96-well plate (Nunc, USA) and cultured for 48 h at 37° C. […] Supernatants were collected after 24 h and TNF-α and IL-6 production was measured using OptiEIA ELISA sets, (BD BioSciences, USA). […]

Read-outs that look alike come from different tables or passages of the source.

On to `C/C=C/C(O)C(C)/C=C/C(=N\O)C(C)C(O)C(C)C1OC(=O)/C(OC)=C/C(C)=C/C(C)C(O)C(CC)C(O)C(C)C/C(C)=C/C=C/C1OC` (stereo not drawn) [Compound of example 7, (3Z,5E,13E,15E)-18-((5Z,6E,10E)-3,9-Dihydroxy-5-(hydroxymino)-4,8-dimethyldodeca-6,10-dien-2-yl)-9-ethyl-8,10-dihydroxy-3,17-dimethoxy-5,7,11,13-tetramethyl oxacyclooctadeca-3,5,13,15-tetraen-2-one], for which the IC50 in test [1] (Table 3: PHA-PMA induced hPBMC's, 48 h, read-out: IL-2 IC50) came out at 0.005 µM; in test [1] (Table 4: mitogen stimulated production from hPBMC's, read-out: IL-2 (IC50 μM)), 0.007 µM; in test [2] (Table 3: PHA-PMA induced hPBMC's, 48 h, read-out: IFN-γ IC50), 0.02 µM; in test [2] (Table 4: mitogen stimulated production from hPBMC's, read-out: IFN-γ (IC50 μM)) it was 0.1 µM. The inhibition at 0.3 µM in test [3] (at 0.3 μM) worked out at 66%. Also, the inhibition at 0.5 µM in test [3] (at 0.5 μM) is 100%.
